Experimental data from patent US20150352164A1, “COMPOSITION COMPRISING THEANINE AND AN EXTRACT OF INULA RACEMOSA” (CONOPCO, INC., D/B/A UNILEVER, priority 2012, published 2015).

Tested on: 3T3L1 (mouse preadipocytes), differentiated to mature adipocytes; adiponectin secretion
Assay: Adiponectin assay: adiponectin secretion from differentiated 3T3L1 adipocytes, ELISA of supernatants
Assay type: cell-based
Conditions: for % of adiponectin (control cells taken as hundred): 48 hrs
Procedure: Adiponectin Assay Protocol • 3T3L1 (mouse preadipocytes) were plated on a 96 well plate at a density of 3*10^3 cells per well; • After 5 days of post confluency (a condition where the cells form a uniform layer) the cells were differentiated (a process where premature adipocytes are transformed to mature adipocytes) in differentiation medium for 10 days; • On the 11th day the matured adipocytes were treated with non cytotoxic concentrations (concentrations stated below) of the inula racemosa extract and theanine; • The cells were incubated for 48 hrs and supernatants were collected and stored. They were analysed to detect level of Adiponectin by ELISA; • The efficacy of the test ingredient was evaluated with respect to the untreated control (media control); • If any of the tested combinations of inula racemosa extract and theanine on increased adiponectin level was larger in a statistically significant way than the additive effect or individual components, then the particular combination is considered to be synergistic. To investigate the efficacy of inula racemosa and theanine in increasing adiponectin secretion from 3T3L1, the cells were treated with varying concentrations of inula racemosa (as obtained set out herein in the Materials section) and theanine in cell culture medium. The % of adiponectin from control cells were taken as hundred, upon which the treatment values were calculated. […] A range of combination varying amounts of inula racemosa extract and theanine were investigated on its joint ability for adiponectin secretion. The combinations used were (weight ratio's theanine:inula racemosa extract): 100:1 ([…]), 100:10,000 (H). This was achieved via dissolution of the components in aqueous stock solutions.

## CCNC(=O)CCC(N)C(=O)O (stereo not shown) [Theanine, 2-Amino-4-(ethylcarbamoyl)butyric acid]
0.00001% wt of inula r. extract or theanine in cell culture medium
  % of adiponectin (control cells taken as hundred): 106.7 +/− 7.4%
0.00002% wt of inula r. extract or theanine in cell culture medium
  % of adiponectin (control cells taken as hundred): 107.0 +/− 7.0%
0.00005% wt of inula r. extract or theanine in cell culture medium
  % of adiponectin (control cells taken as hundred): 136.7 +/− 7.3%
0.0001% wt of inula r. extract or theanine in cell culture medium
  % of adiponectin (control cells taken as hundred): 141.7 +/− 1.6%
0.0005% wt of inula r. extract or theanine in cell culture medium
  % of adiponectin (control cells taken as hundred): 145.8 +/− 8.2%
0.001% wt of inula r. extract or theanine in cell culture medium
  % of adiponectin (control cells taken as hundred): 156.0 +/− 8.5%
Varying concentrations, 3T3L1 cells
  adiponectin levels, in-vitro, separately: increased adiponectin levels
